# Laboratory results: PubChem BioAssay (NCI)
#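 Results reflect a 48-hour exposure of cells in 96-well plates to compound at five concentrations. Abbreviation: GI50, concentration required for 50% inhibition of growth. TGI is the concentration that stops growth completely.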
# Columns and labels:
# Experiment in all cases: NCI anticancer screen, dose series, 48 h
# 786-0 renal = test system: 786-0 renal
# A498 renal = test system: A498 renal
# A549 NSCLC = test system: A549 NSCLC
# ACHN renal = test system: ACHN renal
# BT-549 breast = test system: BT-549 breast
# CAKI-1 renal = test system: CAKI-1 renal
# CCRF-CEM leukemia = test system: CCRF-CEM leukemia
# COLO 205 colon = test system: COLO 205 colon
# DU-145 prostate = test system: DU-145 prostate
# EKVX NSCLC = test system: EKVX NSCLC
# HCC-2998 colon = test system: HCC-2998 colon
# HCT-116 colon = test system: HCT-116 colon
# HCT-15 colon = test system: HCT-15 colon
# HL-60(TB) leukemia = test system: HL-60(TB) leukemia
# HOP-62 NSCLC = test system: HOP-62 NSCLC
# HOP-92 NSCLC = test system: HOP-92 NSCLC
# HS 578T breast = test system: HS 578T breast
# HT29 colon = test system: HT29 colon
# IGROV1 ovarian = test system: IGROV1 ovarian
# K-562 leukemia = test system: K-562 leukemia
# KM12 colon = test system: KM12 colon
# LOX IMVI melanoma = test system: LOX IMVI melanoma
# M14 melanoma = test system: M14 melanoma
# MALME-3M melanoma = test system: MALME-3M melanoma
# MCF7 breast = test system: MCF7 breast
# MDA-MB-231 breast = test system: MDA-MB-231 breast
# MDA-MB-435 = test system: MDA-MB-435
# MDA-MB-468 breast = test system: MDA-MB-468 breast
# MOLT-4 leukemia = test system: MOLT-4 leukemia
# NCI-H226 lung = test system: NCI-H226 lung
# NCI-H23 lung = test system: NCI-H23 lung
# NCI-H460 lung = test system: NCI-H460 lung
# NCI-H522 lung = test system: NCI-H522 lung
# NCI/ADR-RES ovarian = test system: NCI/ADR-RES ovarian
# OVCAR-3 ovarian = test system: OVCAR-3 ovarian
# OVCAR-4 ovarian = test system: OVCAR-4 ovarian
# OVCAR-5 ovarian = test system: OVCAR-5 ovarian
# OVCAR-8 ovarian = test system: OVCAR-8 ovarian
# PC-3 prostate = test system: PC-3 prostate
# RPMI-8226 leukemia = test system: RPMI-8226 leukemia
# RXF 393 renal = test system: RXF 393 renal
# SF-268 CNS = test system: SF-268 CNS
# SF-295 CNS = test system: SF-295 CNS
# SF-539 CNS = test system: SF-539 CNS
# SK-MEL-2 melanoma = test system: SK-MEL-2 melanoma
# SK-MEL-28 melanoma = test system: SK-MEL-28 melanoma
# SK-MEL-5 melanoma = test system: SK-MEL-5 melanoma
# SK-OV-3 ovarian = test system: SK-OV-3 ovarian
# SN12C renal = test system: SN12C renal
# SNB-19 CNS = test system: SNB-19 CNS
# SNB-75 CNS = test system: SNB-75 CNS
# SR leukemia = test system: SR leukemia
# SW-620 colon = test system: SW-620 colon
# T-47D breast = test system: T-47D breast
# TK-10 renal = test system: TK-10 renal
# U251 CNS = test system: U251 CNS
# UACC-257 melanoma = test system: UACC-257 melanoma
# UACC-62 melanoma = test system: UACC-62 melanoma
# UO-31 renal = test system: UO-31 renal
smiles,measurement,setting,value
N#C/C(=C\c1ccc(N(c2ccccc2)c2ccccc2)cc1)C(N)=O,GI50,786-0 renal,18 µM
same,TGI,786-0 renal,> 92.1 µM
same,GI50,A498 renal,1.11 µM
same,TGI,A498 renal,2.61 µM
same,GI50,A549 NSCLC,22.7 µM
same,TGI,A549 NSCLC,> 100 µM
same,GI50,ACHN renal,64.4 µM
same,TGI,ACHN renal,> 100 µM
same,GI50,BT-549 breast,> 100 µM
same,TGI,BT-549 breast,> 100 µM
same,GI50,CAKI-1 renal,0.308 µM
same,TGI,CAKI-1 renal,2.48 µM
same,GI50,CCRF-CEM leukemia,> 100 µM
same,TGI,CCRF-CEM leukemia,> 100 µM
same,GI50,COLO 205 colon,15.3 µM
same,TGI,COLO 205 colon,> 100 µM
same,GI50,DU-145 prostate,> 100 µM
same,TGI,DU-145 prostate,> 100 µM
same,GI50,EKVX NSCLC,> 100 µM
same,TGI,EKVX NSCLC,> 100 µM
same,GI50,HCC-2998 colon,> 64.1 µM
same,TGI,HCC-2998 colon,> 100 µM
same,GI50,HCT-116 colon,0.758 µM
same,TGI,HCT-116 colon,> 100 µM
same,GI50,HCT-15 colon,> 100 µM
same,TGI,HCT-15 colon,> 100 µM
same,GI50,HL-60(TB) leukemia,> 100 µM
same,TGI,HL-60(TB) leukemia,> 100 µM
same,GI50,HOP-62 NSCLC,3.9 µM
same,TGI,HOP-62 NSCLC,31.5 µM
same,GI50,HOP-92 NSCLC,29.7 µM
same,TGI,HOP-92 NSCLC,> 92.4 µM
same,GI50,HS 578T breast,38.4 µM
same,TGI,HS 578T breast,> 100 µM
same,GI50,HT29 colon,16.9 µM
same,TGI,HT29 colon,> 100 µM
same,GI50,IGROV1 ovarian,0.946 µM
same,TGI,IGROV1 ovarian,4.64 µM
same,GI50,K-562 leukemia,43.9 µM
same,TGI,K-562 leukemia,> 100 µM
same,GI50,KM12 colon,> 100 µM
same,TGI,KM12 colon,> 100 µM
same,GI50,LOX IMVI melanoma,> 89 µM
same,TGI,LOX IMVI melanoma,> 100 µM
same,GI50,M14 melanoma,> 100 µM
same,TGI,M14 melanoma,> 100 µM
same,GI50,MALME-3M melanoma,42.9 µM
same,TGI,MALME-3M melanoma,> 100 µM
same,GI50,MCF7 breast,0.661 µM
same,TGI,MCF7 breast,> 100 µM
same,GI50,MDA-MB-231 breast,> 72.5 µM
same,TGI,MDA-MB-231 breast,> 100 µM
same,GI50,MDA-MB-435,> 100 µM
same,TGI,MDA-MB-435,> 100 µM
same,GI50,MDA-MB-468 breast,0.145 µM
same,TGI,MDA-MB-468 breast,0.351 µM
same,GI50,MOLT-4 leukemia,> 100 µM
same,TGI,MOLT-4 leukemia,> 100 µM
same,GI50,NCI-H226 lung,0.24 µM
same,TGI,NCI-H226 lung,0.989 µM
same,GI50,NCI-H23 lung,15.3 µM
same,TGI,NCI-H23 lung,> 100 µM
same,GI50,NCI-H460 lung,1.74 µM
same,TGI,NCI-H460 lung,> 67.2 µM
same,GI50,NCI-H522 lung,> 78.9 µM
same,TGI,NCI-H522 lung,> 100 µM
same,GI50,NCI/ADR-RES ovarian,21.6 µM
same,TGI,NCI/ADR-RES ovarian,> 100 µM
same,GI50,OVCAR-3 ovarian,4.6 µM
same,TGI,OVCAR-3 ovarian,> 95.9 µM
same,GI50,OVCAR-4 ovarian,2.28 µM
same,TGI,OVCAR-4 ovarian,16.1 µM
same,GI50,OVCAR-5 ovarian,1.12 µM
same,TGI,OVCAR-5 ovarian,3.07 µM
same,GI50,OVCAR-8 ovarian,35.1 µM
same,TGI,OVCAR-8 ovarian,> 100 µM
same,GI50,PC-3 prostate,> 69.8 µM
same,TGI,PC-3 prostate,> 100 µM
same,GI50,RPMI-8226 leukemia,12.4 µM
same,TGI,RPMI-8226 leukemia,> 100 µM
same,GI50,RXF 393 renal,1.33 µM
same,TGI,RXF 393 renal,20.3 µM
same,GI50,SF-268 CNS,67.3 µM
same,TGI,SF-268 CNS,> 100 µM
same,GI50,SF-295 CNS,7.24 µM
same,TGI,SF-295 CNS,> 100 µM
same,GI50,SF-539 CNS,68 µM
same,TGI,SF-539 CNS,> 100 µM
same,GI50,SK-MEL-2 melanoma,29 µM
same,TGI,SK-MEL-2 melanoma,> 100 µM
same,GI50,SK-MEL-28 melanoma,> 100 µM
same,TGI,SK-MEL-28 melanoma,> 100 µM
same,GI50,SK-MEL-5 melanoma,11 µM
same,TGI,SK-MEL-5 melanoma,> 100 µM
same,GI50,SK-OV-3 ovarian,25.3 µM
same,TGI,SK-OV-3 ovarian,> 100 µM
same,GI50,SN12C renal,> 77.1 µM
same,TGI,SN12C renal,> 100 µM
same,GI50,SNB-19 CNS,37.3 µM
same,TGI,SNB-19 CNS,> 100 µM
same,GI50,SNB-75 CNS,19.8 µM
same,TGI,SNB-75 CNS,> 93.9 µM
same,GI50,SR leukemia,> 100 µM
same,TGI,SR leukemia,> 100 µM
same,GI50,SW-620 colon,8.69 µM
same,TGI,SW-620 colon,> 100 µM
same,GI50,T-47D breast,1.06 µM
same,TGI,T-47D breast,5.27 µM
same,GI50,TK-10 renal,0.797 µM
same,TGI,TK-10 renal,3.92 µM
same,GI50,U251 CNS,2.99 µM
same,TGI,U251 CNS,> 100 µM
same,GI50,UACC-257 melanoma,0.839 µM
same,TGI,UACC-257 melanoma,3.53 µM
same,GI50,UACC-62 melanoma,0.308 µM
same,TGI,UACC-62 melanoma,1.37 µM
same,GI50,UO-31 renal,25.7 µM
same,TGI,UO-31 renal,> 100 µM
